Results published in ChEMBL document CHEMBL3399937, “(18)F-AmBF3-MJ9: a novel radiofluorinated bombesin derivative for prostate cancer imaging” (Bioorg Med Chem, 2015).

How the values were obtained:
[1] = system: Liver; assay: Biodistribution in liver of NSG mouse xenografted with human PC-3 tumor at 0.37 to 0.74 MBq, iv after 2 hrs by gamma counting analysis; assay type: ADME, organism-based; settings: in vivo
[2] = system: Kidney; assay: Biodistribution in kidney of NSG mouse xenografted with human PC-3 tumor at 0.37 to 0.74 MBq, iv after 1 hr by gamma counting analysis in presence of BAY86-7548; assay type: ADME, organism-based; settings: in vivo
[3] = system: Lung; assay: Biodistribution in lung of NSG mouse xenografted with human PC-3 tumor at 0.37 to 0.74 MBq, iv after 1 hr by gamma counting analysis; assay type: ADME, organism-based; settings: in vivo
[4] = system: Plasma; assay: Metabolic stability in mouse plasma after 0.5 to 2 hrs by HPLC analysis; assay type: ADME, cell-free
[5] = system: Spleen; assay: Biodistribution in spleen of NSG mouse xenografted with human PC-3 tumor at 0.37 to 0.74 MBq, iv after 2 hrs by gamma counting analysis; assay type: ADME, organism-based; settings: in vivo
[6] = system: Muscle tissue; assay: Biodistribution in muscle of NSG mouse xenografted with human PC-3 tumor at 0.37 to 0.74 MBq, iv after 2 hrs by gamma counting analysis; assay type: ADME, organism-based; settings: in vivo
[7] = system: Mus musculus; assay: Biodistribution in seminal gland of NSG mouse xenografted with human PC-3 tumor at 0.37 to 0.74 MBq, iv after 0.5 hrs by gamma counting analysis; assay type: ADME, organism-based; settings: in vivo
[8] = system: Brain; assay: Biodistribution in brain of NSG mouse xenografted with human PC-3 tumor at 0.37 to 0.74 MBq, iv after 1 hr by gamma counting analysis in presence of BAY86-7548; assay type: ADME, organism-based; settings: in vivo
[9] = system: Muscle tissue; assay: Biodistribution in muscle of NSG mouse xenografted with human PC-3 tumor at 0.37 to 0.74 MBq, iv after 0.5 hrs by gamma counting analysis; assay type: ADME, organism-based; settings: in vivo
[10] = system: Blood; assay: Biodistribution in blood of NSG mouse xenografted with human PC-3 tumor at 0.37 to 0.74 MBq, iv after 1 hr by gamma counting analysis in presence of BAY86-7548; assay type: ADME, organism-based; settings: in vivo
[11] = system: Mus musculus; assay: Biodistribution in adrenal gland of NSG mouse xenografted with human PC-3 tumor at 0.37 to 0.74 MBq, iv after 1 hr by gamma counting analysis; assay type: ADME, organism-based; settings: in vivo
[12] = system: Blood; assay: Biodistribution in blood of NSG mouse xenografted with human PC-3 tumor at 0.37 to 0.74 MBq, iv after 0.5 hrs by gamma counting analysis; assay type: ADME, organism-based; settings: in vivo
[13] = system: Brain; assay: Biodistribution in brain of NSG mouse xenografted with human PC-3 tumor at 0.37 to 0.74 MBq, iv after 1 hr by gamma counting analysis; assay type: ADME, organism-based; settings: in vivo
[14] = system: Tumour; assay: Biodistribution in tumor of NSG mouse xenografted with human PC-3 tumor at 0.37 to 0.74 MBq, iv after 1 hr by gamma counting analysis; assay type: ADME, organism-based, Neoplasm; settings: in vivo
[15] = system: Tumour; assay: Biodistribution in tumor of NSG mouse xenografted with human PC-3 tumor at 0.37 to 0.74 MBq, iv after 2 hrs by gamma counting analysis; assay type: ADME, organism-based, Neoplasm; settings: in vivo
[16] = system: Spleen; assay: Biodistribution in spleen of NSG mouse xenografted with human PC-3 tumor at 0.37 to 0.74 MBq, iv after 1 hr by gamma counting analysis; assay type: ADME, organism-based; settings: in vivo
[17] = system: Pancreas; assay: Biodistribution in pancreas of NSG mouse xenografted with human PC-3 tumor at 0.37 to 0.74 MBq, iv after 2 hrs by gamma counting analysis; assay type: ADME, organism-based; settings: in vivo
[18] = system: Pancreas; assay: Biodistribution in pancreas of NSG mouse xenografted with human PC-3 tumor at 0.37 to 0.74 MBq, iv after 1 hr by gamma counting analysis in presence of BAY86-7548; assay type: ADME, organism-based; settings: in vivo
[19] = system: Liver; assay: Biodistribution in liver of NSG mouse xenografted with human PC-3 tumor at 0.37 to 0.74 MBq, iv after 1 hr by gamma counting analysis in presence of BAY86-7548; assay type: ADME, organism-based; settings: in vivo
[20] = system: Bone; assay: Biodistribution in bone of NSG mouse xenografted with human PC-3 tumor at 0.37 to 0.74 MBq, iv after 1 hr by gamma counting analysis; assay type: ADME, organism-based, Bone element; settings: in vivo
[21] = system: Muscle tissue; assay: Biodistribution in muscle of NSG mouse xenografted with human PC-3 tumor at 0.37 to 0.74 MBq, iv after 1 hr by gamma counting analysis in presence of BAY86-7548; assay type: ADME, organism-based; settings: in vivo
[22] = system: Lung; assay: Biodistribution in lung of NSG mouse xenografted with human PC-3 tumor at 0.37 to 0.74 MBq, iv after 2 hrs by gamma counting analysis; assay type: ADME, organism-based; settings: in vivo
[23] = system: Heart; assay: Biodistribution in heart of NSG mouse xenografted with human PC-3 tumor at 0.37 to 0.74 MBq, iv after 1 hr by gamma counting analysis in presence of BAY86-7548; assay type: ADME, organism-based; settings: in vivo
[24] = system: Blood; assay: Biodistribution in blood of NSG mouse xenografted with human PC-3 tumor at 0.37 to 0.74 MBq, iv after 2 hrs by gamma counting analysis; assay type: ADME, organism-based; settings: in vivo
[25] = system: Mus musculus; assay: Biodistribution in adrenal gland of NSG mouse xenografted with human PC-3 tumor at 0.37 to 0.74 MBq, iv after 2 hrs by gamma counting analysis; assay type: ADME, organism-based; settings: in vivo
[26] = system: Mus musculus; assay: Biodistribution in seminal gland of NSG mouse xenografted with human PC-3 tumor at 0.37 to 0.74 MBq, iv after 1 hr by gamma counting analysis; assay type: ADME, organism-based; settings: in vivo
[27] = system: Tumour; assay: Biodistribution in tumor of NSG mouse xenografted with human PC-3 tumor at 0.37 to 0.74 MBq, iv after 1 hr by gamma counting analysis in presence of BAY86-7548; assay type: ADME, organism-based, Neoplasm; settings: in vivo
[28] = system: Heart; assay: Biodistribution in heart of NSG mouse xenografted with human PC-3 tumor at 0.37 to 0.74 MBq, iv after 0.5 hrs by gamma counting analysis; assay type: ADME, organism-based; settings: in vivo
[29] = system: Pancreas; assay: Biodistribution in pancreas of NSG mouse xenografted with human PC-3 tumor at 0.37 to 0.74 MBq, iv after 1 hr by gamma counting analysis; assay type: ADME, organism-based; settings: in vivo
[30] = Biodistribution in fat of NSG mouse xenografted with human PC-3 tumor at 0.37 to 0.74 MBq, iv after 1 hr by gamma counting analysis; assay type: ADME, organism-based, Adipose tissue; settings: in vivo
[31] = system: Mus musculus; assay: Biodistribution in testis of NSG mouse xenografted with human PC-3 tumor at 0.37 to 0.74 MBq, iv after 2 hrs by gamma counting analysis; assay type: ADME, organism-based; settings: in vivo
[32] = system: Mus musculus; assay: Biodistribution in adrenal gland of NSG mouse xenografted with human PC-3 tumor at 0.37 to 0.74 MBq, iv after 1 hr by gamma counting analysis in presence of BAY86-7548; assay type: ADME, organism-based; settings: in vivo

Drug uptake [1]: 0.33 % ID/g
Drug uptake [2]: 6.66 % ID/g
Drug uptake [3]: 0.96 % ID/g
Stability [4]: Stable
Drug uptake [5]: 0.26 % ID/g
Drug uptake [6]: 0.03 % ID/g
Drug uptake [7]: 0.33 % ID/g
Drug uptake [8]: 0.03 % ID/g
Drug uptake [9]: 0.38 % ID/g
Drug uptake [10]: 0.48 % ID/g
Drug uptake [11]: 0.5 % ID/g
Drug uptake [12]: 2.1 % ID/g
Drug uptake [13]: 0.02 % ID/g
Drug uptake [14]: 1.47 % ID/g
Drug uptake [15]: 2.2 % ID/g
Drug uptake [16]: 0.33 % ID/g
Drug uptake [17]: 4.75 % ID/g
Drug uptake [18]: 0.42 % ID/g
Drug uptake [19]: 1.05 % ID/g
Drug uptake [20]: 0.28 % ID/g
Drug uptake [21]: 0.14 % ID/g
Drug uptake [22]: 0.4 % ID/g
Drug uptake [23]: 0.18 % ID/g
Drug uptake [24]: 0.32 % ID/g
Drug uptake [25]: 0.29 % ID/g
Drug uptake [26]: 0.7 % ID/g
Drug uptake [27]: 0.54 % ID/g
Drug uptake [28]: 0.54 % ID/g
Drug uptake [29]: 4.16 % ID/g
Drug uptake [30]: 0.07 % ID/g
Drug uptake [31]: 0.13 % ID/g
Drug uptake [32]: 0.21 % ID/g
SMILES: CC(C)C[C@H](NC(=O)C[C@H](O)[C@H](CC(C)C)NC(=O)[C@H](Cc1cnc[nH]1)NC(=O)CNC(=O)[C@@H](NC(=O)[C@H](C)NC(=O)[C@H](Cc1c[nH]c2ccccc12)NC(=O)[C@H](CCC(N)=O)NC(=O)[C@@H](Cc1ccccc1)NC(=O)CN1CCC(NC(=O)Cn2cc(C[N+](C)(C)C[B-](F)(F)[17F])nn2)CC1)C(C)C)C(N)=O
